Experimental data: patent US6093563A, “Chondroitin lyase enzymes” (IBEX Technologies R and D, Inc., priority 1994, dated 2000)

Key:
[1] = molecular target: Flavobacterium heparinum chondroitinase B (55,000 Dalton, purified, Sequence ID No. 4) (Pedobacter heparinus, UniProt Q46079); conditions: 0.1 mM reagent; 20 mM Tris buffer, pH 8.0; 0.5 mg/ml dermatan sulfate as substrate; none = 100
Experimental: (§1) Chondroitinase activity was determined by a modification of the spectrophotometric assay described by Yang, et al., J. Biol. Chem., 160(30):1849-1857, 1985. Chondroitinases degrade their respective substrates by an eliminative reaction resulting in the formation of 4,5-unsaturated sulfated disaccharides which absorb ultraviolet light at 232 nm. Reaction buffers contained 50 mM Tris, pH 8.0 and 0.5 mg/ml substrate; dermatan sulfate for chondroitinase B activity, chondroitin sulfate A for chondroitinase AC activity. A continuous spectrophotometric assay is carried out by transferring a 10 to 50 μl sample to a quartz cuvette and adding the reaction buffer to make a final volume of one ml. The cuvette is placed in a Beckman DU 640 spectrophotometer, controlled to maintain a constant temperature of 30° C., and the increase in absorbance at 232 nm monitored for three to five minutes. Activities are calculated using the molar extinction coefficient for chondroitin sulfate, 5.1×103 M^-1, and are expressed in international units, IU, where one IU is the amount of enzyme required to catalyze the formation of one μmole unsaturated product per minute.

[2] = molecular target: Flavobacterium heparinum chondroitinase AC (77,000 Dalton, purified, Sequence ID No. 2) (Pedobacter heparinus, UniProt Q59288); conditions: 0.1 mM reagent; 20 mM Tris buffer, pH 8.0; 0.5 mg/ml chondroitin sulfate A as substrate; none = 100
Chain of Flavobacterium heparinum chondroitinase AC (77,000 Dalton, purified, Sequence ID No. 2) (Q59288 23-700): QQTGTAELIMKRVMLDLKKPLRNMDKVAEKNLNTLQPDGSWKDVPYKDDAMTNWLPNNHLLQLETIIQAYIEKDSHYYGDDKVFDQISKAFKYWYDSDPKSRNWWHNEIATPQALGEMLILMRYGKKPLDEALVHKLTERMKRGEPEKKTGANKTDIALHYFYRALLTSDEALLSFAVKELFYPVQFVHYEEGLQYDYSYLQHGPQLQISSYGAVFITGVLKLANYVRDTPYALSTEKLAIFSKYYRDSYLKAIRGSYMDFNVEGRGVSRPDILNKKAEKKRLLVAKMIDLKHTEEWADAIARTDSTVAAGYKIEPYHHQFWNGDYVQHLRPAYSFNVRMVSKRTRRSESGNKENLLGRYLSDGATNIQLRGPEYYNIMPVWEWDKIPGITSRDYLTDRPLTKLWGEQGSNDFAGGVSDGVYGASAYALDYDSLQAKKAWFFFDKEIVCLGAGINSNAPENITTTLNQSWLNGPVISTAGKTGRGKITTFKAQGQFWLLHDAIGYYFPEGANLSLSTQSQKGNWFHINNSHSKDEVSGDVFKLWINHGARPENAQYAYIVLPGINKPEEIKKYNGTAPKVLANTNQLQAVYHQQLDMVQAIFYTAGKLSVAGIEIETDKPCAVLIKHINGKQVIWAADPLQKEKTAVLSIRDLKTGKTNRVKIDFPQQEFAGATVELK
Experimental: as §1

Chain of Flavobacterium heparinum chondroitinase B (55,000 Dalton, purified, Sequence ID No. 4) (Q46079 26-506): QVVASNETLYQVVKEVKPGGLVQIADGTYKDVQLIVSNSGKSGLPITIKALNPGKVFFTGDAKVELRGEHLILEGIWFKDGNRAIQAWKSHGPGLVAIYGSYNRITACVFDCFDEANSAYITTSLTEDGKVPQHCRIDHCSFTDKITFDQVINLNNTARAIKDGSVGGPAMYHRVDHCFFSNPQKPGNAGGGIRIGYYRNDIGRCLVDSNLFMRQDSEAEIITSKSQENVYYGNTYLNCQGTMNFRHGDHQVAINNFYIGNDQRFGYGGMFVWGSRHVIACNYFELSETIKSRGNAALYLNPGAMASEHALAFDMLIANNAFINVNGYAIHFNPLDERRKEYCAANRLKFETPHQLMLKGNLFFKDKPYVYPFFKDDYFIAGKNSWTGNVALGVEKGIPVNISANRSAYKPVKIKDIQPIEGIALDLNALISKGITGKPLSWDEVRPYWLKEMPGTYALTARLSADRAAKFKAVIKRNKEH

O=C(O)CN(CCN(CC(=O)O)CC(=O)O)CC(=O)O [EDTA]
chondroitinase B relative activity (%) [1]: 1%
chondroitinase AC relative activity (%) [2]: 97%
